Experimental findings from patent US7202261B2, “Calcilytic compounds” (NPS Pharmaceuticals, Inc., priority 1996, dated 2007) are described below.

The target of the test is T1, human calcium receptor (Homo sapiens, UniProt P41180).
T1 construct: expressed in transfected cells
T1 sequence (P41180 20-1078): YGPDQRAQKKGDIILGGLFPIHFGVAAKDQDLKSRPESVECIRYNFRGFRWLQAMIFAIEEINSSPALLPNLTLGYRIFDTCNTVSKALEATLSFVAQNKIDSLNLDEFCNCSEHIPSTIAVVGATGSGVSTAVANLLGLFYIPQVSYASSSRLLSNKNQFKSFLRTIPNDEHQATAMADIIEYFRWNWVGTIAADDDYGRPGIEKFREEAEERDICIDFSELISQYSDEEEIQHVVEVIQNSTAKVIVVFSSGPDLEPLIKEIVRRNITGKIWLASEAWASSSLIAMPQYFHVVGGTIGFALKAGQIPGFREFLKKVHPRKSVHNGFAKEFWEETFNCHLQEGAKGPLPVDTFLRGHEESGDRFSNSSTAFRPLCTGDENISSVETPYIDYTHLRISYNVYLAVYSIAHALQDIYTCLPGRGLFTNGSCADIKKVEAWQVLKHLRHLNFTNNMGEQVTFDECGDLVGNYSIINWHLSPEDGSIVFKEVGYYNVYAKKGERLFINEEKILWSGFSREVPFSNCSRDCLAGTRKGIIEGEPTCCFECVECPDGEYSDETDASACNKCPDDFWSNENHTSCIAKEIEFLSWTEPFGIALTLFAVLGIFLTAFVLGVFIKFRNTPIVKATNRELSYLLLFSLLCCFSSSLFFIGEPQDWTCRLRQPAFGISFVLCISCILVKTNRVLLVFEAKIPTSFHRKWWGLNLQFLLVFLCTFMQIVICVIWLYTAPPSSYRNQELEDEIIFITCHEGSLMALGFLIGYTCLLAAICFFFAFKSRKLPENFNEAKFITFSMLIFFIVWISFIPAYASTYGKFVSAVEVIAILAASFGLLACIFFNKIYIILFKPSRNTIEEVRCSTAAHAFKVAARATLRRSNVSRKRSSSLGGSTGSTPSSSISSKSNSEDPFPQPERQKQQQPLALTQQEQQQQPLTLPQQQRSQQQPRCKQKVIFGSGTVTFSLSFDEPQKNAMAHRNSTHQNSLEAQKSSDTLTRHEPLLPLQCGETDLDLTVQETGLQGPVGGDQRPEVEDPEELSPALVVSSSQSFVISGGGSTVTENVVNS
The experiment in a line: Calcium Receptor Inhibitor Assay. In kind it is cell-based. The procedure, abridged: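 Intracellular Ca^2+ measured with fluo-3 at 37° C in stirred cell suspension. Buffer held 1 mM CaCl2 and 1 mg/mL D-glucose. Compound or vehicle added 90 seconds before extracellular Ca^2+ was raised from 1 to 2 mM, and calcilytic activity scored as concentration-dependent block of the intracellular Ca^2+ rise.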

Where [1] appears, read: HEK 293 4.0–7 cells stably expressing the human calcium receptor, fluo-3, read-out: IC50 for blocking increases of intracellular Ca2+ elicited by extracellular Ca2+.

Counter-ions that a name gives are not always drawn. Like-named read-outs stand apart in the source and are kept apart here.

On to `Cc1ccc(CC(C)(C)NCC(O)COc2ccccc2)cc1C` (stereo not shown) [Compound 121, N-(2-Hydroxy-3-phenoxy)propyl)-1,1-dimethyl-2-(3,4-dimethylphenyl)ethylamine Hydrochloride], for which the IC50 – broadly, the concentration needed to halve the response being measured – under setting [1] is less than 1000 nM.
Still for that read-out and setting: next, `COc1ccc(CC(C)(C)NC[C@@H](O)COc2ccccc2C#N)cc1` [Compound 122, (R)—N-[2-Hydroxy-3-(2-cyanophenoxy)propyl]-1,1-dimethyl-2-(4-methoxyphenyl)ethylamine Hydrochloride]: less than 1000 nM.
Take `COc1ccc(CC(C)(C)NCC(O)CCCCCCCCO)cc1` (stereo not shown) [Compound 123, N-(2,10-Dihydroxydecyl)-1,1-dimethyl-2-(4-methoxyphenyl)ethylamine Hydrochloride]: the IC50 is less than 10000 nM.
On the same count and under the same terms, under `COc1ccc(CC(C)(C)NCC(O)Cc2ccc3c(c2)OCO3)cc1` (stereo not shown) [Compound 124, N-[2-hydroxy-3-(3,4-methylene-dioxyphenyl)propyl]-1,1-dimethyl-2-(4-methoxyphenyl)ethylamine Hydrochloride] stands less than 10000 nM.
Consider `COc1ccc(CC(C)(C)NCC(O)COCCCCCCc2ccccc2)cc1` (stereo not shown) [Compound 126, N-[2-hydroxy-3-(6-phenyl-hexanoxy)propyl]-1,1-dimethyl-2-(4-methoxyphenyl)ethylamine], for which the 50% inhibitory concentration (IC50) under setting [1] is less than 1000 nM.
As for `COc1ccc(CC(C)(C)NCC(O)COCCCCc2ccccc2)cc1` (stereo not shown) [Compound 127, N-[2-hydroxy-3-(4-phenyl-butanoxy)propyl]-1,1-dimethyl-2-(4-methoxyphenyl)ethylamine], under setting [1], the IC50 is less than 1000 nM.
`COc1ccc(CC(C)(C)NCC(O)COc2ccccc2)cc1F` (stereo not shown) [Compound 128, N-(2-hydroxy-3-phenoxypropyl)-1,1-dimethyl-2-(3-fluoro-4-methoxyphenyl) ethylamine]: the IC50 under setting [1] was less than 10000 nM.
On the same count and under the same terms, under `COc1ccc(CC(C)(C)NCC(O)COc2ccccc2)c(F)c1` (stereo not shown) [Compound 129, N-(2-hydroxy-3-phenoxypropyl)-1,1-dimethyl-2-(2-fluoro-4-methoxyphenyl)ethylamine Hydrochloride] stands less than 1000 nM; under `COc1ccc(CC(C)(C)NCC(O)COc2cccc3c(OC)cccc23)cc1` (stereo not shown) [Compound 130, N-[2-hydroxy-3-(5-methoxy-1-napthoxy)propyl]-1,1-dimethyl-2-(4-methoxyphenyl)ethylamine Hydrochloride], less than 1000 nM.
As to `COc1ccc(CC(C)(C)NCC(O)COC2CCCCC2C#N)cc1` (stereo not shown) [Compound 131, N-[2-hydroxy-3-(2-cyano-cyclohexyloxy)propyl-1,1-dimethyl-2-(4-methoxyphenyl)ethylamine Hydrochloride], the 50% inhibitory concentration (IC50) is less than 1000 nM.
Consider `COc1ccc(CC(C)(C)NCC(O)COc2ccc(OC)c(OC)c2)cc1` (stereo not shown) [Compound 132, N-[2-hydroxy-3-(3,4-dimethoxyphenoxy)propyl]-1,1-dimethyl-2-(4-methoxyphenyl)ethylamine Hydrochloride], for which, under setting [1], the IC50 is less than 10000 nM.
Still for that read-out and setting: next, `COc1ccc(CC(C)(C)NCC(O)COc2cc(OC)cc(OC)c2)cc1` (stereo not shown) [Compound 133, N-[2-hydroxy-3-(3,5-dimethoxyphenoxy)propyl]-1,1-dimethyl-2-(4-methoxyphenyl)ethylamine Hydrochloride]: less than 1000 nM; `COC(=O)c1ccccc1OCC(O)CNC(C)(C)Cc1ccc(OC)cc1` (stereo not shown) [Compound 134, N-[2-hydroxy-3-(2-carbomethoxyphenoxy)propyl]-1,1-dimethyl-2-(4-methoxyphenyl)ethylamine Hydrochloride]: less than 1000 nM.
Still for that read-out and setting: under `COc1ccc(CC(C)(C)NCC(O)COc2ccc(C)cc2)cc1` (stereo not shown) [Compound 135, N-[2-hydroxy-3-(4-methylphenoxy)propyl]-1,1-dimethyl-2-(4-methoxyphenyl)ethylamine Hydrochloride] stands less than 1000 nM; under `COc1ccc(CC(C)(C)NCC(O)COc2cccc(Cl)c2Cl)cc1` (stereo not shown) [Compound 136, N-[2-hydroxy-3-(2,3-dichlorophenoxy)propyl]-1,1-dimethyl-2-(4-methoxyphenyl)ethylamine Hydrochloride], less than 1000 nM; under `COc1ccc(CC(C)(C)NCC(O)COc2cc(Cl)cc(Cl)c2)cc1` (stereo not shown) [Compound 137, N-[2-hydroxy-3-(3,5-dichlorophenoxy)propyl]-1,1-dimethyl-2-(4-methoxyphenyl)ethylamine Hydrochloride], less than 1000 nM.
The same measure, in the same setting: next, `COc1ccc(CC(C)(C)NCC(O)COc2ccc(Cl)cc2Cl)cc1` (stereo not shown) [Compound 138, N-[2-hydroxy-3-(2,4-dichlorophenoxy)propyl]-1,1-dimethyl-2-(4-methoxyphenyl)ethylamine Hydrochloride]: less than 1000 nM; `COc1ccc(CC(C)(C)NCC(O)COc2ccc(Cl)c(Cl)c2)cc1` (stereo not shown) [Compound 139, N-[2-hydroxy-3-(3,4-dichlorophenoxy)propyl]-1,1-dimethyl-2-(4-methoxyphenyl)ethylamine Hydrochloride]: less than 1000 nM; `COc1ccc(CC(C)(C)NCC(O)COc2cc(Cl)ccc2Cl)cc1` (stereo not shown) [Compound 140, N-[2-hydroxy-3-(2,5-dichlorophenoxy)propyl]-1,1-dimethyl-2-(4-methoxyphenyl)ethylamine Hydrochloride]: less than 1000 nM.
As to `CCc1ccc(OCC(O)CNC(C)(C)Cc2ccc(OC)cc2)cc1` (stereo not shown) [Compound 141, N-[2-hydroxy-3-(4-ethylphenoxy)propyl]-1,1-dimethyl-2-(4-methoxyphenyl)ethylamine Hydrochloride], under setting [1], the IC50 was less than 1000 nM.
Still for that read-out and setting: next, `COc1ccc(CC(C)(C)NCC(O)COc2ccccc2C#N)cc1` (stereo not shown) [Compound 142, N-[2-hydroxy-3-(2-cyanophenoxy)propyl]-1,1-dimethyl-2-(4-methoxyphenyl)ethylamine Hydrochloride]: less than 1000 nM.
On the same count and under the same terms, next, `COc1ccc(CC(C)(C)NCC(O)COc2cccc([N+](=O)[O-])c2)cc1` (stereo not shown) [Compound 143, N-[2-hydroxy-3-(3-nitrophenoxy)propyl]-1,1-dimethyl-2-(4-methoxyphenyl)ethylamine Hydrochloride]: less than 1000 nM.
Still for that read-out and setting: next, `CCOc1ccc(OCC(O)CNC(C)(C)Cc2ccc(OC)cc2)cc1` (stereo not shown) [Compound 144, N-[2-hydroxy-3-(4-ethoxyphenoxy)propyl]-1,1-dimethyl-2-(4-methoxyphenyl)ethylamine Hydrochloride]: less than 10000 nM; `COc1ccc(CC(C)(C)NCC(O)COc2ccc(C(C)C)cc2)cc1` (stereo not shown) [Compound 145, N-[2-hydroxy-3-(4-iso-propylphenoxy)propyl]-1,1-dimethyl-2-(4-methoxyphenyl)ethylamine Hydrochloride]: less than 1000 nM; `COc1ccc(CC(C)(C)NCC(O)COc2cccc(C(C)C)c2)cc1` (stereo not shown) [Compound 146, N-[2-hydroxy-3-(3-iso-propylphenoxy)propyl]-1,1-dimethyl-2-(4-methoxyphenyl)ethylamine Hydrochloride]: less than 1000 nM.
Regarding `CCOc1cccc(OCC(O)CNC(C)(C)Cc2ccc(OC)cc2)c1` (stereo not shown) [Compound 147, N-[2-hydroxy-3-(3-ethoxyphenoxy)propyl]-1,1-dimethyl-2-(4-methoxyphenyl)ethylamine Hydrochloride], the IC50 under setting [1] was less than 10000 nM.
Still for that read-out and setting: under `CCCc1ccccc1OCC(O)CNC(C)(C)Cc1ccc(OC)cc1` (stereo not shown) [Compound 148, N-[2-hydroxy-3-(2-n-propylphenoxy)propyl]-1,1-dimethyl-2-(4-methoxyphenyl)ethylamine Hydrochloride] stands less than 1000 nM; under `CCCc1ccc(OCC(O)CNC(C)(C)Cc2ccc(OC)cc2)cc1` (stereo not shown) [Compound 149, N-[2-hydroxy-3-(4-n-propylphenoxy)propyl]-1,1-dimethyl-2-(4-methoxyphenyl)ethylamine Hydrochloride], less than 1000 nM.
The same measure, in the same setting: under `CCc1cccc(OCC(O)CNC(C)(C)Cc2ccc(OC)cc2)c1` (stereo not shown) [Compound 150, N-[2-Hydroxy-3-(3-ethylphenoxy)propyl)-1,1-dimethyl-2-(4-methoxyphenyl)ethylamine Hydrochloride] stands less than 1000 nM; under `CCc1ccccc1OCC(O)CNC(C)(C)Cc1ccc(OC)cc1` (stereo not shown) [Compound 151, N-[2-hydroxy-3-(2-ethylphenoxy)propyl]-1,1-dimethyl-2-(4-methoxyphenyl)ethylamine Hydrochloride], less than 1000 nM.
The same measure, in the same setting: next, `COc1ccc(CC(C)(C)NCC(O)COc2ccc(OC(F)(F)F)cc2)cc1` (stereo not shown) [Compound 152, N-[2-hydroxy-3-(4-trifluoromethoxyphenoxy)propyl)-1,1-dimethyl-2-(4-methoxyphenyl)ethylamine Hydrochloride]: less than 10000 nM.
